Numbered stars: 1 amine (or outer) side, 2 acyl side, 3 side chain; on linkers, the order of the positions; unused ones are H or OH. Bridge positions count the residues as written; N and C are the ends. Square brackets hold non-standard residues; d marks the D form. Peptide text beside a SMILES is read from it. * marks the point of attachment. Ala(piperidin-4-yl) = O=C([C@H](CC1CCN([*:3])CC1)N[*:1])[*:2]; DOTA = O=C(O)CN1CCN(CC(=O)O)CCN(CC(=O)*)CCN(CC(=O)O)CC1; Phe(4-CH2NH2) = NCc1ccc(C[C@H](N)C(=O)O)cc1; 1Nal = N[C@@H](Cc1cccc2ccccc12)C(=O)O; 2Nal = N[C@@H](Cc1ccc2ccccc2c1)C(=O)O; NMetBuAla = CN[C@@H](CC(C)(C)C)C(=O)O; NMeChg = CN[C@H](C(=O)O)C1CCCCC1; tBuAla = CC(C)(C)C[C@H](N)C(=O)O; Chg = N[C@H](C(=O)O)C1CCCCC1; αMeP = C[C@@]1(C(=O)O)CCCN1; Ahx = NCCCCCC(=O)O
These compounds were tested against T1, human DLL3 (Homo sapiens, UniProt Q9NYJ7) (assay: Affinity determination by Surface Plasmon Resonance (SPR), Biacore, 1:1 binding model). Conditions: biotinylated human DLL3 on streptavidin chip, 25° C.; NB = nonbinding.
T1 construct: biotin (biotinylated)
T1 sequence (Q9NYJ7 27-618): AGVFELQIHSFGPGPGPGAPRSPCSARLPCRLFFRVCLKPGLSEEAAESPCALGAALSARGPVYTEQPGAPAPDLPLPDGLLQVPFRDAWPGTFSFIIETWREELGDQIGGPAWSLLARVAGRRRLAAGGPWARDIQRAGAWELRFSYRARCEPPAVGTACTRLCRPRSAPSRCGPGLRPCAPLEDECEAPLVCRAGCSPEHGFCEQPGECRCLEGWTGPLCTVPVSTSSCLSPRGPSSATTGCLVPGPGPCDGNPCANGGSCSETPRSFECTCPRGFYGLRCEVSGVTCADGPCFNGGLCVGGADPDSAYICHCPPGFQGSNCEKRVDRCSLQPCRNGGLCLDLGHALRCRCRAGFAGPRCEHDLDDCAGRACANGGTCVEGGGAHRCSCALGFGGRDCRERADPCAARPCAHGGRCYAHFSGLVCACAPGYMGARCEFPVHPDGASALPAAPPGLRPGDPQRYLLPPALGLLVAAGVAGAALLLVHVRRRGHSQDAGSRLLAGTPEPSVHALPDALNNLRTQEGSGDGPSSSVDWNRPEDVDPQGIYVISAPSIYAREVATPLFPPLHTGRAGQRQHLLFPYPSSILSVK
Procedure, shortened: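 SPR with biotinylated human DLL3 captured on a streptavidin chip, with a reference surface subtracted. Samples were injected at several concentrations at 100 μL/min in phosphate buffer with 137 mM NaCl, 2.7 mM KCl, 0.05% P20 and 2% DMSO. Kinetic and affinity constants came from a 1:1 binding fit.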
With `CC(=O)N[C@H](C(=O)N[C@@H](CO)C(=O)N[C@@H](CC(=O)O)C(=O)N[C@H]1CSSC[C@@H](C(=O)N2CCC[C@@]2(C)C(=O)N[C@@H](Cc2ccccc2)C(=O)N[C@@H](CC(=O)O)C(N)=O)NC(=O)[C@H](CC(N)=O)NC(=O)[C@H](Cc2ccc3ccccc3c2)NC(=O)[C@H](CCCCNC(=O)CN2CCN(CC(=O)O)CCN(CC(=O)O)CCN(CC(=O)O)CC2)NC(=O)[C@H](CC(C)(C)C)NC(=O)[C@H](Cc2cccc3ccccc23)NC1=O)C1CCCCC1` [compound 174, Ac-(Chg)-S-D-C(3)-(1Nal)-(t-Bu-Ala)-[L-Lys(DOTA)]-(2Nal)-N-C(3)-(aMe-P)-F -D-CONH2] (Ac-[Chg]SDC[1Nal][tBuAla]K(DOTA)[2Nal]NC[αMeP]FD-NH2; disulfide 4-10) the Kd was 0.23 nM.
`C[C@@H](NC(=O)CN1CCN(CC(=O)O)CCN(CC(=O)O)CCN(CC(=O)O)CC1)C(=O)N[C@@H](CO)C(=O)N[C@@H](CC(=O)O)C(=O)N[C@H]1CSSC[C@@H](C(=O)N2CCC[C@@]2(C)C(=O)N[C@@H](Cc2ccccc2)C(=O)N[C@@H](CC(=O)O)C(N)=O)NC(=O)[C@H](CC(N)=O)NC(=O)[C@H](Cc2ccc3ccccc3c2)NC(=O)[C@H](CC2CCNCC2)NC(=O)[C@H](CC(C)(C)C)NC(=O)[C@H](Cc2cccc3ccccc23)NC1=O` [compound 175, DOTA-(D-Ala)-S-D-C(3)-(1Nal)-(t-Bu-Ala)-[3-(4-piperidinyl)-Ala]-(2Nal)-N-C(3)-(aMe-P)-F -D-CONH2] ({DOTA}-[dA]SDC[1Nal][tBuAla][Ala(piperidin-4-yl)][2Nal]NC[αMeP]FD-NH2; disulfide 4-10) was tested, and the Kd was 0.067 nM.
For `C[C@@H](NC(=O)CCCCCNC(=O)CN1CCN(CC(=O)O)CCN(CC(=O)O)CCN(CC(=O)O)CC1)C(=O)N[C@@H](CO)C(=O)N[C@@H](CC(=O)O)C(=O)N[C@H]1CSSC[C@@H](C(=O)N2CCC[C@@]2(C)C(=O)N[C@@H](Cc2ccccc2)C(=O)N[C@@H](CC(=O)O)C(N)=O)NC(=O)[C@H](CC(N)=O)NC(=O)[C@H](Cc2ccc3ccccc3c2)NC(=O)[C@H](CC2CCNCC2)NC(=O)[C@H](CC(C)(C)C)NC(=O)[C@H](Cc2cccc3ccccc23)NC1=O` [compound 177, DOTA-PEG4-S-D-C(3)-(1Nal)-(t-Bu-Ala)-[3-(4-piperidinyl)-Ala]-(2Nal)-N-C(3)-(aMe-P)-F -D-CONH2] ({DOTA-Ahx}-[dA]SDC[1Nal][tBuAla][Ala(piperidin-4-yl)][2Nal]NC[αMeP]FD-NH2; disulfide 4-10), the Kd was 0.098 nM.
Work on `CC(=O)N[C@@H](CO)C(=O)N[C@@H](CC(=O)O)C(=O)N[C@H]1CSSC[C@@H](C(=O)N2CCC[C@@]2(C)C(=O)N[C@@H](Cc2ccccc2)C(=O)N[C@@H](CC(=O)O)C(=O)N[C@H](CCCCNC(=O)CN2CCN(CC(=O)O)CCN(CC(=O)O)CCN(CC(=O)O)CC2)C(N)=O)NC(=O)[C@H](CC(N)=O)NC(=O)[C@H](Cc2ccc3ccccc3c2)NC(=O)[C@H](CC2CCNCC2)NC(=O)[C@H](CC(C)(C)C)N(C)C(=O)[C@H](Cc2cccc3ccccc23)NC1=O` [compound 178, Ac-S-D-C(3)-(1Nal)-(NMe-Tba)-[3-(4-piperidinyl)-Ala]-(2Nal)-N-C(3)-(aMe-P)-F -D-[D-Lys(DOTA)]-NH2] (Ac-SDC[1Nal][NMetBuAla][Ala(piperidin-4-yl)][2Nal]NC[αMeP]FD[dK](DOTA)-NH2; disulfide 3-9) yielded a Kd of 2.43 nM.
Compound `CC(=O)N[C@@H](CO)C(=O)N[C@@H](CC(=O)O)C(=O)N[C@H]1CSSC[C@@H](C(=O)N2CCC[C@@]2(C)C(=O)N[C@@H](Cc2ccccc2)C(=O)N[C@@H](CC(=O)O)C(=O)N[C@H](CCCCNC(=O)CN2CCN(CC(=O)O)CCN(CC(=O)O)CCN(CC(=O)O)CC2)C(N)=O)NC(=O)[C@H](CC(N)=O)NC(=O)[C@H](Cc2ccc3ccccc3c2)NC(=O)[C@H](CC2CCNCC2)NC(=O)[C@H](C2CCCCC2)N(C)C(=O)[C@H](Cc2cccc3ccccc23)NC1=O` [compound 179, Ac-S-D-C(3)-(1Nal)-(NMe-Chg)-[3-(4-piperidinyl)-Ala]-(2Nal)-N-C(3)-(aMe-P)-F -D-[D-Lys(DOTA)]-NH2] (Ac-SDC[1Nal][NMeChg][Ala(piperidin-4-yl)][2Nal]NC[αMeP]FD[dK](DOTA)-NH2; disulfide 3-9) has a Kd greater than 30 nM.
`CC(=O)N[C@@H](CC1CCNCC1)C(=O)N[C@@H](CO)C(=O)N[C@@H](CC(=O)O)C(=O)N[C@H]1CSSC[C@@H](C(=O)N2CCC[C@@]2(C)C(=O)N[C@@H](Cc2ccccc2)C(=O)N[C@@H](CC(=O)O)C(N)=O)NC(=O)[C@H](CC(N)=O)NC(=O)[C@H](Cc2ccc3ccccc3c2)NC(=O)[C@H](Cc2ccc(CNC(=O)CN3CCN(CC(=O)O)CCN(CC(=O)O)CCN(CC(=O)O)CC3)cc2)NC(=O)[C@H](CC(C)(C)C)N(C)C(=O)[C@H](Cc2cccc3ccccc23)NC1=O` [compound 180, Ac-[3-(4-piperidinyl)-Ala]-S-D-C(3)-(1Nal)-(NMe-Tba)-[PAF(DOTA)]-(2Nal)-N-C(3)-(aMe-P)-F -D-CONH2] (Ac-[Ala(piperidin-4-yl)]SDC[1Nal][NMetBuAla][Phe(4-CH2NH2)](DOTA)[2Nal]NC[αMeP]FD-NH2; disulfide 4-10) showed a Kd greater than 30 nM.
In the case of `CC(=O)N[C@@H](CC1CCNCC1)C(=O)N[C@@H](CO)C(=O)N[C@@H](CC(=O)O)C(=O)N[C@H]1CSSC[C@@H](C(=O)N2CCC[C@@]2(C)C(=O)N[C@@H](Cc2ccccc2)C(=O)N[C@@H](CC(=O)O)C(N)=O)NC(=O)[C@H](CC(N)=O)NC(=O)[C@H](Cc2ccc3ccccc3c2)NC(=O)[C@H](Cc2ccc(CNC(=O)CN3CCN(CC(=O)O)CCN(CC(=O)O)CCN(CC(=O)O)CC3)cc2)NC(=O)[C@H](C2CCCCC2)N(C)C(=O)[C@H](Cc2cccc3ccccc23)NC1=O` [compound 181, Ac-[3-(4-piperidinyl)-Ala]-S-D-C(3)-(1Nal)-(NMe-Chg)-[PAF(DOTA)]-(2Nal)-N-C(3)-(aMe-P)-F -D-CONH2] (Ac-[Ala(piperidin-4-yl)]SDC[1Nal][NMeChg][Phe(4-CH2NH2)](DOTA)[2Nal]NC[αMeP]FD-NH2; disulfide 4-10), the Kd is reported as greater than 30 nM.
With `CC(=O)N[C@H](C(=O)N[C@@H](CO)C(=O)N[C@@H](CC(=O)O)C(=O)N[C@H]1CSSC[C@@H](C(=O)N2CCC[C@@]2(C)C(=O)N[C@@H](Cc2ccccc2)C(=O)N[C@@H](CC(=O)O)C(=O)N[C@H](CCCCNC(=O)CN2CCN(CC(=O)O)CCN(CC(=O)O)CCN(CC(=O)O)CC2)C(N)=O)NC(=O)[C@H](CC(N)=O)NC(=O)[C@H](Cc2ccc3ccccc3c2)NC(=O)[C@H](CC2CCNCC2)NC(=O)[C@H](CC(C)(C)C)N(C)C(=O)[C@H](Cc2cccc3ccccc23)NC1=O)C1CCCCC1` [compound 182, Ac-Chg-S-D-C(3)-(1Nal)-(NMe-Tba)-[3-(4-piperidinyl)-Ala]-(2Nal)-N-C(3)-(aMe-P)-F -D-[D-Lys(DOTA)]-NH2] (Ac-[Chg]SDC[1Nal][NMetBuAla][Ala(piperidin-4-yl)][2Nal]NC[αMeP]FD[dK](DOTA)-NH2; disulfide 4-10) the Kd was 5.39 nM.
For `CC(=O)N[C@H](C(=O)N[C@@H](CO)C(=O)N[C@@H](CC(=O)O)C(=O)N[C@H]1CSSC[C@@H](C(=O)N2CCC[C@@]2(C)C(=O)N[C@@H](Cc2ccccc2)C(=O)N[C@@H](CC(=O)O)C(=O)N[C@H](CCCCNC(=O)CN2CCN(CC(=O)O)CCN(CC(=O)O)CCN(CC(=O)O)CC2)C(N)=O)NC(=O)[C@H](CC(N)=O)NC(=O)[C@H](Cc2ccc3ccccc3c2)NC(=O)[C@H](CC2CCNCC2)NC(=O)[C@H](C2CCCCC2)N(C)C(=O)[C@H](Cc2cccc3ccccc23)NC1=O)C1CCCCC1` [compound 183, Ac-Chg-S-D-C(3)-(1Nal)-(NMe-Chg)-[3-(4-piperidinyl)-Ala]-(2Nal)-N-C(3)-(aMe-P)-F -D-[D-Lys(DOTA)]-NH2] (Ac-[Chg]SDC[1Nal][NMeChg][Ala(piperidin-4-yl)][2Nal]NC[αMeP]FD[dK](DOTA)-NH2; disulfide 4-10), the Kd was greater than 30 nM.
